Results reported in PubChem BioAssay AID608 (Sanford-Burnham Center for Chemical Genomics, 2007).
The source made the active and inactive calls. The rule behind the calls is not given here.

Biological target: Peptidyl-prolyl cis-trans isomerase FKBP1A (Homo sapiens) (UniProt P62942)
Test: small-molecule binding to FKBP12 – biophysical, NMR detection (AID 608)
Settings: purified FKBP12

Sequence of Peptidyl-prolyl cis-trans isomerase FKBP1A (Homo sapiens) (P62942 whole entry, looked up): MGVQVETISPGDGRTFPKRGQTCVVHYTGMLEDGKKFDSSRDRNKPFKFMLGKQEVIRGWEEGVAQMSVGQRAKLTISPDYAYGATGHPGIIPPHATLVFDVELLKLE

Compound	Kd
Cc1oc(-c2ccccc2)cc1C(N)=O	> 4 mM (inactive)
N#CCSc1nc(-c2ccccc2)cs1	> 4 mM (inactive)
O=C1CSC2(CN3CCC2CC3)N1 (stereo unspecified)	> 4 mM (inactive)
O=[N+]([O-])c1ccc(/C=N/c2ncn[nH]2)cc1	> 4 mM (inactive)
Cc1cc(C(=O)Nc2cccnc2)no1	> 4 mM (inactive)
Cc1ccc(NC(=O)/C=C2\SC(=O)NC2=O)cc1	> 4 mM (inactive)
O=C(NCN1CCOCC1)c1cccnc1	> 4 mM (inactive)
CC(=O)NC(NC(C)=O)c1ccccc1	> 4 mM (inactive)
CC(=O)c1ccc2c(c1)OCCO2	> 4 mM (inactive)
Cc1cc2cc(N)ccc2[nH]1	> 4 mM (inactive)
Cn1nc(C(=O)Nc2cccnc2)c2ccccc2c1=O	> 4 mM (inactive)
O=C(O)CSCc1c(F)cccc1Cl	> 4 mM (inactive)
CC(=O)Oc1c2c(c3c(c1CC=C(C)C)O[C@]14C(=C[C@@H]5CC1C(C)(C)OC4(C/C=C(\C)C(=O)O)C5=O)C3=O)OC(C)(CCC=C(C)C)C=C2 (stereo partly specified)	> 4 mM (inactive)
CC(=O)NC(=S)Nc1ccccc1N1CCOCC1	> 4 mM (inactive)
CC(C)=CC1C(CO)C1(C)C (stereo unspecified)	> 4 mM (inactive)
O=C1c2ccccc2C(=O)c2c(O)c(O)cc(O)c21	> 4 mM (inactive)
Cc1ccc(C)n1-c1ccc(C(=O)N2CCOCC2)cc1	> 4 mM (inactive)
NC(=O)CC1NC(=O)c2ccccc21 (stereo unspecified)	> 4 mM (inactive)
C[N+](C)(C)CC(O)CC(=O)O (stereo unspecified)	> 4 mM (inactive)
CC(=O)Nc1ccc(-c2ccc3nncn3n2)cc1	> 4 mM (inactive)
CC(C)c1ccc(SCC(=O)N2CCOCC2)cc1	5e-05 mM
Oc1cc2c(cc1O)C1c3ccc(O)c(O)c3OCC1(O)C2 (stereo unspecified)	> 4 mM (inactive)
CN(C)S(=O)(=O)c1ccc(N2CCOCC2)nc1	> 4 mM (inactive)
CCOC(=O)c1snnc1-c1ccccc1	> 4 mM (inactive)

Compound	Kd
NCc1ccc(-c2cccs2)s1	> 4 mM (inactive)
NC(=S)N1CCC(c2ccccc2)=N1	> 4 mM (inactive)
O=C1CS/C(=N/N=C2CCCC2)N1	> 4 mM (inactive)
COc1cc(C(=O)O[C@H]2CC[C@@]3(C)[C@@H]4CC[C@H]5[C@]6(O)C[C@H](O)[C@@]7(O)[C@@H](CN8C[C@@H](C)CC[C@H]8[C@@]7(C)O)[C@]6(O)C[C@@]53OC24O)cc(OC)c1OC	> 4 mM (inactive)
COC(=O)CSc1nnc(-c2ccc(C(=O)O)cc2)o1	> 4 mM (inactive)
COc1ccc2nc(SCC(N)=O)[nH]c2c1	> 4 mM (inactive)
Nc1ccc(N2CCOCC2)c(Cl)c1	> 4 mM (inactive)
O=C1CCC(=O)N1CN1CCOCC1	> 4 mM (inactive)
Cc1nc(-c2ccc(C(=O)O)s2)cs1	> 4 mM (inactive)
CC(=O)Nc1sccc1C(=O)NC(N)=O	> 4 mM (inactive)
Cc1cc(/C=N/O)nc(=O)[nH]1	> 4 mM (inactive)
Cc1cc(N2C(=O)CCC2=O)n(-c2ccccc2)n1	> 4 mM (inactive)
Cc1nc(-c2ccccc2)sc1CN	> 4 mM (inactive)
O=C(O)Cc1n[nH]c(=O)c2ccccc12	> 4 mM (inactive)
C/C(=C\CO)CC[C@H](C)CCC[C@H](C)CCCC(C)C	> 4 mM (inactive)
CCOC(=O)c1nc2ccccc2c(=O)n1N	> 4 mM (inactive)
COC(=O)c1ccccc1NC(=O)c1cc[n+]([O-])cc1	> 4 mM (inactive)
NC(=O)CSc1nnc2ccc(-c3ccccn3)nn12	> 4 mM (inactive)
CS(=O)(=O)Nc1ccc(C(=O)N2CCCCC2)cc1	> 4 mM (inactive)
O=C1C=CC(=O)N1c1ccccc1O	> 4 mM (inactive)
CS(=O)(=O)NN=C1CCCCC1	> 4 mM (inactive)
OCc1sccc1-n1cccc1	> 4 mM (inactive)
O=c1nc(N2CCCCC2)nc2n1CCO2	> 4 mM (inactive)
COc1cc2c(cc1-c1coc3c4c(c(OC)cc3c1=O)OC(C)(C)C=C4)OCO2	> 4 mM (inactive)

Compound	Kd
COC(=O)[C@@H]1C(O)CC[C@H]2CN3CCc4c([nH]c5ccccc45)[C@@H]3C[C@@H]21 (stereo partly specified)	> 4 mM (inactive)
CNC(=S)Nc1cccc(C(=O)O)c1	> 4 mM (inactive)
O=C1c2cccnc2C(=O)N1Cc1ccco1	> 4 mM (inactive)
O=S(=O)(Cc1ccccc1)N1CCCCCC1	> 4 mM (inactive)
Nc1nonc1-c1nc2ccccc2[nH]1	> 4 mM (inactive)
O=C(O)c1ccc(-c2ccccn2)s1	> 4 mM (inactive)
COC1CC(O[C@H]2CC[C@]3(C=O)C4CC[C@]5(C)C(C6=CC(=O)OC6)CC[C@]5(O)C4CC[C@]3(O)C2)OC(C)C1O (stereo partly specified)	> 4 mM (inactive)
COc1ccc2c(c1)=C(c1sc(N)nc1O)C(=O)N=2	> 4 mM (inactive)
O=c1ccc(=O)n(CN2CCc3ccccc3C2)[nH]1	> 4 mM (inactive)
CNC(=O)C(=O)Nc1ccc(C)c(C)c1	> 4 mM (inactive)
CC1(C)NC(=O)N(CCOc2ccc3c(c2)CCC3)C1=O	> 4 mM (inactive)
C=C(C)[C@@H]1CC[C@]2(CO)CC[C@]3(C)[C@H](CCC4[C@@]5(C)CC[C@H](O)C(C)(C)C5CC[C@]43C)C12 (stereo partly specified)	> 4 mM (inactive)
COC[C@]12CN(C=O)C3[C@@H]4[C@H](OC)C1[C@]3(C1CC3(O)C(OC)C(O)C4(OC(C)=O)C1C3OC(=O)c1ccccc1)[C@@H](OC)C[C@H]2O (stereo partly specified)	> 4 mM (inactive)
O=c1c2ccccc2[nH]c2ncccc12	> 4 mM (inactive)
CNc1nc(C)nc(-n2nc(C)cc2C)n1	> 4 mM (inactive)
O=c1c(O)c(-c2ccc(O)cc2O)oc2cc(O)cc(O)c12	> 4 mM (inactive)
Cn1c(C(=O)O)ccc1S(N)(=O)=O	> 4 mM (inactive)
CCC(C)C(=O)O[C@@H]1C[C@@]2(C)[C@H](c3ccoc3)OC(=O)CC23OC2(C)OC34[C@H](OC(=O)C(C)C)[C@@]3(O)[C@@H](OC(=O)C5(C)OC5C)[C@@]5(C)C[C@]3(O)[C@@](C)([C@H]5CC(=O)OC)C14O2 (stereo partly specified)	> 4 mM (inactive)
Cn1c(NCc2ccco2)nc2ccccc21	> 4 mM (inactive)
COc1cc(O)c2c(c1)C(=O)c1cc(C)cc(O)c1C2=O	> 4 mM (inactive)
CN1CCN(C(=O)c2ccco2)CC1	> 4 mM (inactive)
C/C=C(\C)c1nnc(NC(=O)c2ccco2)s1	> 4 mM (inactive)
COC(=O)c1sccc1S(=O)(=O)N1CCCC1	> 4 mM (inactive)
COCC(=O)Nc1cccc2ccccc12	> 4 mM (inactive)

Compound	Kd
NCc1ccc2occc2c1	> 4 mM (inactive)
O=C1c2ccccc2C(=O)c2c1ccc(O)c2O	> 4 mM (inactive)
COc1ccc(-c2cc(=O)c3ccccc3o2)cc1OC	> 4 mM (inactive)
CN1CCN(C(=O)Nc2cccc3ccccc23)CC1	> 4 mM (inactive)
COC(=O)C[C@H]1C2(C)CC34OC5(C)O[C@@]6([C@H](OC(C)=O)C(OC(C)=O)[C@]7(C)C(/C(=C(/O)C(C)C)C(=O)O[C@H]7c7ccoc7)[C@@]6(O5)[C@H](OC(C)=O)[C@@]3(O)C2OC(=O)C(C)C)[C@]14C (stereo partly specified)	> 4 mM (inactive)
O=C1N=c2ccccc2=C1c1[nH]c(=S)[nH]c1O	> 4 mM (inactive)
CC(=O)Nc1ccc(S(=O)(=O)N2CCN=C2C)cc1	> 4 mM (inactive)
C=C(C)[C@H]1COc2cc3oc(=O)ccc3cc2O1	> 4 mM (inactive)
C#CCCCCCCCCCCCc1ccco1	> 4 mM (inactive)
O=C(COc1ccc(Cl)cc1Cl)N1CCOCC1	inactive
CC(C)=CC(=O)Nc1ccc(S(N)(=O)=O)cc1	> 4 mM (inactive)
CC(=O)NC(C)(C)C1CC=C(C)/C(=N\O)C1 (stereo unspecified)	> 4 mM (inactive)
O=C(CCc1ccc(O)cc1)c1c(O)cc(O)cc1O	> 4 mM (inactive)
NC(=O)c1ccc(-c2csnn2)cc1	> 4 mM (inactive)
Cc1nc(SCC#N)c2c3c(sc2n1)CCC3	> 4 mM (inactive)
O=C(O)CCCN1CNC(=S)NC1	> 4 mM (inactive)
COc1ncnc(N)c1[N+](=O)[O-]	> 4 mM (inactive)
O=C(Nc1nnc(-c2ccco2)o1)C1=COCCO1	> 4 mM (inactive)
CNCc1ccccc1	> 4 mM (inactive)
Cc1c(C(=O)Nc2ccccc2)sc(N)c1C(N)=O	> 4 mM (inactive)
CSc1ccccc1NC(=O)c1c(C)noc1C	> 4 mM (inactive)
COc1ccccc1-c1noc(-c2ccncc2)n1	> 4 mM (inactive)
CN1CCN(CC(=O)NC2CCCCC2)CC1	> 4 mM (inactive)
CC(C)=CC(=O)Nc1ccccc1C(N)=O	> 4 mM (inactive)

Compound	Kd
O=C(c1nc2ccccc2s1)N1CCSCC1	> 4 mM (inactive)
O=[N+]([O-])c1cccc(CN2CCC(O)CC2)c1	> 4 mM (inactive)
CC(=O)Oc1ccccc1N1C(=O)C=CC1=O	> 4 mM (inactive)
Nc1ccc2nccnc2c1	> 4 mM (inactive)
COc1ccc(C)cc1S(=O)(=O)N1CCCCC1	> 4 mM (inactive)
CCOC(=O)c1c(C)cc(O)c(C)c1O	> 4 mM (inactive)
C/C=C1\[C@H]2C=C(C)C[C@]1(N)c1ccc(=O)[nH]c1C2	> 4 mM (inactive)
CSc1ccccc1C(=O)N1CCOCC1	> 4 mM (inactive)
C#CCCCCCCCCCCCC(O)CC(O)COC(C)=O (stereo unspecified)	> 4 mM (inactive)
CC(C)(C)c1ccc(SCC(N)=O)cc1	0.455 mM
Nc1ncnc(NC2CCS(=O)(=O)C2)c1[N+](=O)[O-] (stereo unspecified)	> 4 mM (inactive)
Cc1cc(=O)[nH]c(NCc2cccnc2)n1	> 4 mM (inactive)
O=S1(=O)CCC(NCCO)C1 (stereo unspecified)	> 4 mM (inactive)
CNC(=O)c1ccccc1N	> 4 mM (inactive)
COc1cccc(NC(=O)c2cccs2)c1	0.44 mM
COc1ccc(-c2coc3cc(O)ccc3c2=O)cc1	> 4 mM (inactive)
CN(C)C(=O)C12CCC(C)(C(=O)O1)C2(C)C (stereo unspecified)	> 4 mM (inactive)
O=C(O)C1Cc2c([nH]c3ccccc23)CN1 (stereo unspecified)	> 4 mM (inactive)
C/C=C(\C)c1nnc(NC(=O)C(C)C)s1	> 4 mM (inactive)
Cc1cc(=O)cc(C)n1-c1ccccc1N1CCOCC1	> 4 mM (inactive)
